Series [1] can be described thus: Storage stability test of salt forms (HPLC). Type of series: physicochemical. The protocol:
Storage stability tests at 25° C. and at 60° C. were conducted with the different salt forms of the (Lys-Cys) 2. Stability was measured with a HPLC method.

For a further series, the system named is CHO-K1 cells. As to the kind of experiment: In vitro cytotoxicity / viability assay (MTS) on CHO-K1 cells. It counts as cell-based, Chinese hamster. Particulars: high concentration (tested at 1 and 10 mM), 24 h with dipeptide, samples adjusted to pH 7, vs control medium without (Lys-Cys)2. The protocol: (§1) • The assay was performed with human bone marrow stromal cells, mesenchymal stem cells (MSC) or Chinese hamster ovary cells (subclone K1), respectively. In a first step, the cells were seeded in a transparent 96-well cell culture plate and incubated for 24 h in a CO2-Incubator (37° C., 5% CO2, 95% humidity) at a cell density of 10.000 cells/well and in a final volume of 100 μl/well. After the resting time of 24 hours the supernatants were discarded, and prepared dipeptide test compounds were added to the cells in a final volume of 100 μl/well. The control was rested in medium without dipeptide.
(§2) All samples were dissolved directly in associated cell culture medium. pH values of the samples were adjusted to pH 7 in advance, to exclude an influence on the cell viability due to a potentially lower pH value.
(§3) Different salt forms of (Lys-Cys)2 were tested in two different concentrations and each sample was tested in triplicates. […]
(§4) As a result of the reduction of MTS into a formazan product by metabolically active cells, an absorbance signal of formazan could be measured at a wavelength of 490 nm in a multiplate reader. […]
(§5) CHO-K1 as well as MSC cells were cultured for 24 hours before the addition of different (Lys-Cys)2 salts. […] After 24-hour cultivation with the dipeptides, the cell viability was assessed using the CellTiter 96® AQueous Non-Radioactive Cell Proliferation Assay (MTS).

Series [2] deals with human bone marrow stromal cells, mesenchymal stem cells (MSC). As to the kind of experiment: In vitro cytotoxicity / viability assay (MTS) on mesenchymal stem cells. Particulars: high concentration (tested at 1 and 10 mM), 24 h with dipeptide, samples adjusted to pH 7, vs control medium without (Lys-Cys)2. Type of series: cell-based. The protocol:
as §1, §2, §3, §4, §5

Where a name gives a salt, the structure may show the parent alone. Read-outs that look alike come from different tables or passages of the source. Positions of bridges follow the written chain, without caps; N, C: chain ends. Residues, ends and D or L forms follow the SMILES beside them. Chains are numbered I, II in the order given.

Turning to `NCCCC[C@H](N)C(=O)N[C@@H](CSSC[C@H](NC(=O)[C@@H](N)CCCCN)C(=O)O)C(=O)O` [2 HCl form, N,N′-di-L-lysyl-L-cystine dihydrochloride] (I: H-Lys-Cys-OH / II: H-Lys-Cys-OH; disulfide I:2-II:2), the storage stability result in series [1] (storage at 25° C. and at 60° C., HPLC, compared with the chloride free, basic form) was “significantly more stable”. The cell viability result (in the series with CHO-K1 cells; in series [2]) was “improved cell viability” in each case.
On to `Cl.Cl.Cl.Cl.NCCCC[C@H](N)C(=O)N[C@@H](CSSC[C@H](NC(=O)[C@@H](N)CCCCN)C(=O)O)C(=O)O` [4 HCl form, N,N′-di-L-lysyl-L-cystine tetrahydrochloride] (I: H-Lys-Cys-OH / II: H-Lys-Cys-OH; disulfide I:2-II:2), for which the storage stability entry in series [1] was “significantly more stable”. The cell viability result in the series with CHO-K1 cells is given as “reduced cell viability”.

The record behind these values is patent US20240425814A1, “SALTS OF DIPEPTIDES AND THEIR USES IN CELL CULTURE” (Evonik Operations GmbH, priority 2021, published 2024).
